Test results: US20210267923A1, “SUCCINIC ACID AND DERIVATIVES FOR THE TREATMENT OF HAEMOTOLOGICAL DISORDERS” (ENZENE BIOSCIENCES LIMITED, priority 2018, published 2021)

How the values were obtained:
TF-1 cells [1] = assay: In-vitro bioassay in TF1 cell lines (proliferation, alamar Blue); conditions: treated 48 h without rhGMCSF, normalized to cell control
platelet counts = conditions: rats, 100 mg/kg twice daily P.O. for 7 days, versus water control
Description: A preliminary study was conducted in rats using pure succinic acid (from commercial source). Six animals were used in each group (control and treated). The treated group received a dose of 100 mg/kg succinic acid twice daily P.O. whereas the control group received water of same volume as in treated twice daily. CBC (Complete Blood counts) was performed from the blood withdrawn from individual rats.

WI38 cells = conditions: WI38 fibroblasts, mitogen-deprived medium (0.1% FBS), 48 h in presence of succinate
TF-1 cells [2] = conditions: normalised to untreated cells (CC), triplicates
Description: For RNA-seq analysis, TF-1 cells were either treated with the positive control GMCSF (GM) or with succinate (E01). Untreated TF-1 cells (CC) were used as a control to determine basal gene expression. RNA-seq was performed in triplicates from all the three groups. The gene expression from E01 or GM group was normalised to the expression of CC.

## O=C([O-])CCC(=O)[O-].[Na+].[Na+] [Sodium Succinate]
TF-1 cells [1]; listed as Na salt of succinic acid
  cellular proliferation in TF-1 cells: showed proliferation activity

## O=C([O-])CCC(=O)[O-].[Ca+2] [Ca salt of succinic acid]
TF-1 cells [1]
  cellular proliferation in TF-1 cells: showed proliferation activity

## O=C(O)CCC(=O)O [succinic acid, Succinic acid]
Platelet counts
  platelet counts: substantially increase the platelet counts
TF-1 cells [1]
  cellular proliferation in TF-1 cells: dose dependent proliferation was observed

## O=C(O)CCC(=O)O [succinate]
WI38 cells
  cell cycle entry from quiescence: entered in the cell cycle even in the absence of mitogens
TF-1 cells [2]
  gene expression changes (RNA-seq): Several genes related to platelet differentiation pathway in succinate treated cells were identified

## O=C([O-])CCC(=O)[O-].[Mg+2] [Mg salt of succinic acid]
TF-1 cells [1]
  cellular proliferation in TF-1 cells: showed proliferation activity
